From ChEMBL document CHEMBL1201862, “PubChem BioAssay data set” (2004)
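These data come from cells grown in 96-well plates and exposed to compound for 48 hours at five concentrations. At the GI50, growth is halved.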 Activity calls are given as the source filed them. Rule as the data show it: active = GI50 up to about 1.1 µM and inactive = higher.

How the values were obtained:
Assay in all cases: growth of human tumour cells (NCI), 48 h
EKVX = test system: EKVX
NCI-H23 = test system: NCI-H23
Malme-3M = test system: Malme-3M
SNB-19 = test system: SNB-19
SK-OV-3 = test system: SK-OV-3
SK-MEL-5 = test system: SK-MEL-5
SN12C = test system: SN12C
COLO 205 = test system: COLO 205
786-0 = test system: 786-0
A549 = test system: A549
UO-31 = test system: UO-31
SNB-75 = test system: SNB-75
M14 = test system: M14
BT-549 = test system: BT-549
T47D = test system: T47D
OVCAR-5 = test system: OVCAR-5
SK-MEL-28 = test system: SK-MEL-28
HOP-92 = test system: HOP-92
U-251 = test system: U-251
MCF7 = test system: MCF7
UACC-257 = test system: UACC-257
OVCAR-4 = test system: OVCAR-4
NCI-H460 = test system: NCI-H460
Hs-578T = test system: Hs-578T
HL-60 = test system: HL-60
IGROV-1 = test system: IGROV-1
K562 = test system: K562
A498 = test system: A498
UACC-62 = test system: UACC-62
NCI-H522 = test system: NCI-H522
SW-620 = test system: SW-620
HT-29 = test system: HT-29
MDA-N = test system: MDA-N
CAKI-1 = test system: CAKI-1
SF-539 = test system: SF-539
MDA-MB-435 = test system: MDA-MB-435
TK-10 = test system: TK-10
ACHN = test system: ACHN
KM12 = test system: KM12
RXF 393 = test system: RXF 393
OVCAR-8 = test system: OVCAR-8
OVCAR-3 = test system: OVCAR-3
SF-295 = test system: SF-295
SR = test system: SR
SF-268 = test system: SF-268
HCC 2998 = test system: HCC 2998
MOLT-4 = test system: MOLT-4
HOP-62 = test system: HOP-62
PC-3 = test system: PC-3
CCRF-CEM = test system: CCRF-CEM
HCT-116 = test system: HCT-116
MDA-MB-231 = test system: MDA-MB-231
NCI-H226 = test system: NCI-H226
DU-145 = test system: DU-145

Measured: GI50

CC1(C)CC2(C)CC1CC2NC(=O)CCN1CCOCC1 (centres undefined)
inactive: EKVX > 100 µM | NCI-H23 > 100 µM | Malme-3M > 100 µM | SNB-19 > 100 µM | SK-OV-3 > 100 µM | SK-MEL-5 > 100 µM | SN12C > 100 µM | COLO 205 > 100 µM | 786-0 > 100 µM | A549 > 100 µM | UO-31 > 100 µM | SNB-75 > 100 µM | M14 > 100 µM | BT-549 > 100 µM | T47D > 100 µM | OVCAR-5 > 100 µM | SK-MEL-28 > 100 µM | HOP-92 > 100 µM | U-251 > 100 µM | MCF7 > 100 µM | UACC-257 > 100 µM | OVCAR-4 > 100 µM | NCI-H460 > 100 µM | Hs-578T > 100 µM | HL-60 > 100 µM | IGROV-1 > 100 µM | K562 > 100 µM | A498 > 100 µM | UACC-62 > 100 µM | NCI-H522 > 100 µM | SW-620 > 100 µM | HT-29 > 100 µM | MDA-N > 100 µM | CAKI-1 > 100 µM | SF-539 > 100 µM | MDA-MB-435 > 100 µM | TK-10 > 100 µM | ACHN > 100 µM | KM12 > 100 µM | RXF 393 > 100 µM | OVCAR-8 > 100 µM | OVCAR-3 > 100 µM | SF-295 > 100 µM | SR > 100 µM | SF-268 > 100 µM | HCC 2998 > 100 µM | MOLT-4 > 100 µM | HOP-62 > 100 µM | PC-3 > 100 µM | CCRF-CEM > 100 µM | HCT-116 > 100 µM | MDA-MB-231 > 100 µM | NCI-H226 > 100 µM | DU-145 > 100 µM
